Results reported in patent US7709511B2, “Benzothiazolone derivatives” (AstraZeneca AB, priority 2005, dated 2010).
Counter-ions that a name gives are not always drawn.

Columns and labels:
[1] = molecular target: T1, recombinant human Dopamine Subtype D2s receptors (Homo sapiens, UniProt P14416); test: Dopamine D2 selectivity assay, inhibition of [3H]-spiperone binding to membranes; conditions: [3H]-spiperone 0.16 nM; read-out: D2 bind pIC50 (converted)
T1 construct: purchased Perkin Elmer
Method: Membranes containing recombinant human Dopamine Subtype D2s receptors were obtained from Perkin Elmer. These were diluted in Assay Buffer (50 mM HEPES, 1 mM EDTA, 120 mM NaCl, 0.1% gelatin, pH 7.4) to provide a final concentration of membranes that gave a clear window between maximum and minimum specific binding.
Assays were performed in U-bottomed 96-well polypropylene plates. 30 μL [^3H]-spiperone (0.16 nM final concentration) and 30 μL of test compound (10× final concentration) were added to each test well. For each assay plate 8 replicates were obtained for [^3H]-spiperone binding in the presence of 30 μL vehicle (10% (v/v) DMSO in Assay Buffer; defining maximum binding) or 30 μL Haloperidol (10 μM final concentration; defining non-specific binding (NSB)). Membranes were then added to achieve a final volume of 300 μL. The plates were incubated for 2 hours at room temperature and then filtered onto PEI coated GF/B filter plates, pre-soaked for 1 hour in Assay Buffer, using a 96-well plate Tomtec cell harvester. Five washes with 250 μL wash buffer (50 mM HEPES, 1 mM EDTA, 120 mM NaCl, pH 7.4) were performed at 4° C. to remove unbound radioactivity. The plates were dried then sealed from underneath using Packard plate sealers and MicroScint-O (50 μL) was added to each well. The plates were sealed (TopSeal A) and filter-bound radioactivity was measured with a scintillation counter (TopCount, Packard BioScience) using a 3-minute counting protocol.
Total specific binding (B0) was determined by subtracting the mean NSB from the mean maximum binding. NSB values were also subtracted from values from all other wells. […] Data was fitted to a four parameter logistic equation to determine the compound potency, which was expressed as pIC50 (negative log molar concentration inducing 50% inhibition of [^3H]-spiperone binding).

Adrenergic β2 = molecular target: T2, Adrenergic β2 (Homo sapiens, UniProt P07550); test: Alternative adrenergic β2 mediated cAMP production in H292 cells (AlphaScreen cAMP detection); type: cell-based; conditions: for EC50: cAMP, test compounds incubated 60 minutes at room temperature, 300 μM rolipram, read-out: β2 pEC50 (converted); for β2 Int Act: fraction relative to the maximum activity determined for formoterol, 60 minutes incubation
T2 construct: endogenous in cells; host or cells: H292 cells
Method: Alternative Adrenergic β2 Mediated cAMP Production Cell Preparation
H292 cells were grown in 225 cm2 flasks incubator at 37° C., 5% CO2 in RPMI medium containing, 10% (v/v) FBS (foetal bovine serum) and 2 mM L-glutamine.
Adherent H292 cells were removed from tissue culture flasks by treatment with Accutase™ cell detachment solution for 15 minutes. Flasks were incubated for 15 minutes in a humidified incubator at 37° C., 5% CO2. Detached cells were re-suspended in RPMI media (containing 10% (v/v) FBS and 2 mM L-glutamine) at 0.05×10^6 cells per mL. 5000 cells in 100 μL were added to each well of a tissue-culture-treated 96-well plate and the cells incubated overnight in a humidified incubator at 37° C., 5% CO2. The culture media was removed and cells were washed twice with 100 μL assay buffer and replaced with 50 μL assay buffer (HBSS solution containing 10 mM HEPES pH7.4 and 5 mM glucose). Cells were rested at room temperature for 20 minutes after which time 25 μL of rolipram (1.2 mM made up in assay buffer containing 2.4% (v/v) dimethylsulphoxide) was added. Cells were incubated with rolipram for 10 minutes after which time test compounds were added and the cells were incubated for 60 minutes at room temperature. The final rolipram concentration in the assay was 300 μM and final vehicle concentration was 1.6% (v/v) dimethylsulphoxide. The reaction was stopped by removing supernatants, washing once with 100 μL assay buffer and replacing with 50 μL lysis buffer. The cell monolayer was frozen at −80° C. for 30 minutes (or overnight).
AlphaScreen™ cAMP Detection
The concentration of cAMP (cyclic adenosine monophosphate) in the cell lysate was determined using AlphaScreen™ methodology. The frozen cell plate was thawed for 20 minutes on a plate shaker then 10 μL of the cell lysate was transferred to a 96-well white plate. 40 μL of mixed AlphaScreen™ detection beads pre-incubated with biotinylated cAMP, was added to each well and the plate incubated at room temperature for 10 hours in the dark. The AlphaScreen™ signal was measured using an EnVision spectrophotometer (Perkin-Elmer Inc.) with the recommended manufacturer's settings. cAMP concentrations were determined by reference to a calibration curve determined in the same experiment using standard cAMP concentrations. Concentration response curves for agonists were constructed and data was fitted to a four parameter logistic equation to determine both the pEC50 and Intrinsic Activity. Intrinsic Activity was expressed as a fraction relative to the maximum activity determined for formoterol in each experiment.

T2 sequence (P07550 whole entry): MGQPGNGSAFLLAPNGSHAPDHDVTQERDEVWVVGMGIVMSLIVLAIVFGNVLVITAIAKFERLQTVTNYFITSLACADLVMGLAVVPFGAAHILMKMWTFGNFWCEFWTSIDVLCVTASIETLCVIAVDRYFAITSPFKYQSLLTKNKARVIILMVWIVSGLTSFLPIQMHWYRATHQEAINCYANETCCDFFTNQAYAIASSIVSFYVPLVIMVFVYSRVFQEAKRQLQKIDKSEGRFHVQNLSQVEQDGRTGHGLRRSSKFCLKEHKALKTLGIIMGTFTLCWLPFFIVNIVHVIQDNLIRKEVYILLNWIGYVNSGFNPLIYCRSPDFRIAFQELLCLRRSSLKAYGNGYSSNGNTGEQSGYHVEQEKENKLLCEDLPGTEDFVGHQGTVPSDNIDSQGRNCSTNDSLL
T1 sequence (P14416 1-414 isoform P14416-2): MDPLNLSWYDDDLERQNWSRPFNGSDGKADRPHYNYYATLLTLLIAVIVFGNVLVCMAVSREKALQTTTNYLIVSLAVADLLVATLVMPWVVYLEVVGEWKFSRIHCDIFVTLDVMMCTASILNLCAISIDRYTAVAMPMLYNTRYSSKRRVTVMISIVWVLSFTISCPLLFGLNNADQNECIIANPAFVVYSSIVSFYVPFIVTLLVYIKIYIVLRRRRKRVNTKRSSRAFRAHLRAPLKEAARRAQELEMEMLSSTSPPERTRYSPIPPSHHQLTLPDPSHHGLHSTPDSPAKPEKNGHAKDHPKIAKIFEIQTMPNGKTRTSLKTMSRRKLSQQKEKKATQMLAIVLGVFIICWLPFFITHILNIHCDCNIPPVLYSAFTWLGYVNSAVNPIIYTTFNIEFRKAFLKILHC

Row | Structure (SMILES) | IC50 [1] [nM] | EC50 (Adrenergic β2) [nM] | β2 Int Act (Adrenergic β2)
1 | CCN(CC)CCN(CCNCCc1ccc(O)c2[nH]c(=O)sc12)C(=O)CCOCCc1ccc(Cl)cc1 [Example 26, 3-[2-(4-Chlorophenyl)ethoxy]-N-(2-diethylaminoethyl)-N-{2-[2-(4-hydroxy-2-oxo-2,3-dihydro-1,3-benzothiazol-7-yl)ethylamino]ethyl}propanamide dihydrobromide] | 1260 | 15.8 | 0.6
2 | CCN(CC)CCN(CCNCCc1ccc(O)c2[nH]c(=O)sc12)C(=O)CCOCCc1cccc(C)c1 [Example 28, N-[2-(Diethylamino)ethyl]-N-(2-{[2-(4-hydroxy-2-oxo-2,3-dihydro-1,3-benzothiazol-7-yl)ethyl]amino}ethyl)-3-[2-(3-methylphenyl)ethoxy]propanamide] | 1000 | 3.16 | 0.6
